Source: US20260137697A1, “THIAZOLO[5,4-D]PYRIMIDINE COMPOUNDS, COMPOSITIONS COMPRISING THEM AND USES THEREOF” (University de Montreal, priority 2022, published 2026)
Like-named read-outs stand apart in the source and are kept apart here.

Legend:
Type in all cases: cell-based, human
pERK, NCI-H358 cells = experiment: Phospho-ERK inhibition, AlphaLISA p-ERK 1/2, NCI-H358; conditions: Table D-2; for IC50: NCI-H358 (KRAS-G12C); for pERK value in parentheses, % inhibition (Ymin): NCI-H358, lowest point of IC50 curve
Experimental: (§1) All cancer cell lines (A375, A101D, A2058, RKO, HT29 SK-MEL 30, IPC298, HepG2, HCT-116, Lovo, SW620, SW480, NCI-H358, NCI-H2122, Calu-6, NCIH2087, NCIH1755, NCIH1666 and Mewo) were obtained from ATCC and cultured in RPM1-1640 medium (Gibco) supplemented with 5% heat inactivated fetal bovine serum (FBS, Wisent) at 37° C. under 5% CO2. Cells were maintained in T175 flasks (Greiner). They were passaged by removing the culture medium, washing once in 10 mL of room temperature Phosphate Buffered Saline (PBS; Wisent) and incubating at 37° C. with 2 mL of 0.05% Trypsin (Thermo-Fisher). Trypsin was then inactivated by adding complete growth medium and the cells were then replated in a T175 culture dish at the appropriate dilution. All cell lines were routinely tested for mycoplasma contamination. Tissue type and mutational status of each cell line can be found in Table B.
(c) Measurement of Phospho-ERK Inhibition in Cultivated Human Cancer Cell Lines by the AlphaLISA® SureFire® Ultra™ p-ERK 1/2 (Thr2O2/Tyr204)
AlphaLISA® SureFire® Ultra™ p-ERK 1/2 (Thr202/Tyr204) analysis was conducted on cells plated in 100 μL of complete RPMI-1640 growth medium in 96-well flat-bottomed transparent dishes (Costar) at a density indicated in Table C. Cells were maintained overnight at 37° C. under 5% CO2 before treatment with compounds' dilution series for one hour. The cell density in cells/cm^2 corresponds to cell number divided by the area of one well of a 96-well plate (0.143 cm^2).
In a dilution series 100 μL/well of test substance dilution prepared in complete RPMI-1640 growth media was added to the cells. The dilution series is selected so that ten concentrations cover a range from 10 μM to 0.33 nM. If necessary, the initial concentration of 10 μM is increased to 100 μM or lowered to 1 μM (as in the case of A375 and H1666 cells, which are generally more sensitive to the compounds) and further dilution is carried out accordingly. The final concentration of DMSO in the assay is set at 0.5%.
After treatment, media was removed, and cells were lysed in 50 μL of 1× AlphaScreen Ultra Lysis Buffer (Perkin Elmer). The AlphaLISA® SureFire® Ultra™ p-ERK 1/2 (Thr202/Tyr204) (PerkinElmer) reactions were performed with 5 μL of cell lysate according to the manufacturer's specifications in 384-well proxyplates (Perkin Elmer) followed by overnight incubation of the reactions at room temperature in a humidified chamber. After completion of the reactions, the signals were recorded on an EnVision plate reader (Perkin Elmer) using built in AlphaLISA® settings.
The effect of each compound dilution on the pERK signal was expressed in % inhibition and calculated as follows. An internal 100% inhibition control (1 μM trametinib, cat. No. HY-10999; MedChem Express; CAS No. 871700-17-3) was included in each plate and used as a measure of pERK background. First, the value obtained for trametinib was subtracted from each data point. The average of DMSO (vehicle) controls (set as 0% inhibition) was established and used to calculate % inhibition:
(§2) The ability of each compound to inhibit pERK signal was expressed as an IC50 value obtained by plotting the inhibition values for each data point of a dilution series and fitting the obtained curves using a log(agonist) versus response—variable slope (four parameters) function using GraphPadPrism (V7.0) or Dotmatics Screening Ultra platform.
When present, paradoxical pERK induction is inferred from the negative % inhibition values observed in the pERK IC50 curves of a compound.

SK-MEL30 cells = experiment: Proliferation inhibition, CellTiter-Glo, SK-MEL30; conditions: Table D-1, SK-MEL30 (NRAS-Q61K), 3 days, read-out: Prolif. (proliferation EC50)
Experimental: as §1
CellTiter-Glo® viability analysis was conducted on cells plated in 100 μL of complete RPMI-1640 growth medium in 96-well flat-bottomed white opaque plates (Greiner or Croning) at a density indicated in Table E (for each CCL, number of cells plated per well of a 96-well plate to perform the CellTiter-Glo® cell viability assay). The cell density in cells/cm^2 would correspond to cell number divided by the area of one well of a 96-well plate (0.32 cm^2). […]
(§3) After 3 days of incubation, the growth media were removed by aspiration and 60 μL of diluted CellTiter-Glo® reagent (10 μL CellTiter-Glo® reagent+50 μL of PBS) was added to each well. […] Luminescence signals were then acquired on a Synergy Neo2 plate reader (Biotek).
(§4) The effect of each compound dilution on the proliferation of cancer cell lines was expressed in % inhibition and calculated as follows. […]
as §2, with “proliferation” for “pERK signal”, “a EC50” for “an IC50”, “effect” for “inhibition”

A2058 cells = experiment: Proliferation inhibition, CellTiter-Glo, A2058; conditions: Table D-1; A2058 (BRAF V600E), 3 days; read-out: Prolif. (proliferation EC50)
Experimental: as §1, with “Trypsin was then inactivated by adding complete growth medium and the cells were then replated in a T175 culture dish at the appropriate dilution. All cell lines were routinely tested for mycoplasma contamination. Tissue type and mutational status of each cell line can be found in Table B.” left out
as §3, §4
as §2, with “proliferation” for “pERK signal”, “a EC50” for “an IC50”, “effect” for “inhibition”

| IC50 (pERK, NCI-H358 cells; Homo sapiens) [nM] | EC50 (SK-MEL30 cells; Homo sapiens, SK-MEL-30, 72 h) [nM] | IC50 (pERK, NCI-H358 cells) [nM] | EC50 (SK-MEL30 cells) [nM] | Structure (SMILES) | pERK value in parentheses, % inhibition (Ymin) (pERK, NCI-H358 cells) | EC50 (A2058 cells) [nM] |
| --- | --- | --- | --- | --- | --- | --- |
| 30 to 300 | < 300 | – | – | Cc1ccc2c(Nc3cccc(Cl)c3F)nccc2c1NC(=O)c1csc2c(N)ncnc12 [Belvarafenib, reference compound] | (−122) % | – |
| – | – | 30 to 300 | < 300 | Cc1c(F)cccc1S(=O)(=O)Nc1ccc(F)c(Nc2ncnc3sc(-n4cc(C(=O)N5C6CCC5CN(C)C6)c5ccccc54)nc23)c1F [Example 44] | (1) % | < 300 |
| – | – | 30 to 300 | < 300 | N#CC1(c2cccc3c2ncn3-c2nc3c(Nc4c(F)ccc(NS(=O)(=O)c5cccc(Cl)c5Cl)c4F)ncnc3s2)CC1 [Example 122] | (−3) % | < 300 |
